Peptide text beside a SMILES is read from it.
Experiments:
Sprague-Dawley rats [1] = experiment: Open field locomotor activity (line crosses); details: 0.1 μg, 20 min following MPFC infusion
[2] = test system: Wnt signaling pathway gene expression; experiment: Wnt pathway-specific qRT-PCR array in mPFC; type: in vivo, rat
Description: Adult (2-3 month-old) male Sprague-Dawley rats (Harlan Laboratories, Indianapolis, Ind.) were housed 3 to a cage and injected (IV) with one of the following—GLYX-13 (3 mg/kg), ketamine (10 mg/kg), or saline vehicle (1 ml/kg). At 1 and 24 hours after injection (N=5 per time point for each treatment group), rats were sacrificed, their brains were quickly dissected, frozen, and then stored at −80° C. The medial prefrontal cortex (mPFC) was dissected from frozen tissue on ice. An equal volume of the homogenized tissue was used to extract and purify RNA for microarray analysis and to make cDNA for qRT-PCR analysis. All procedures were approved by the Northwestern University IACUC committee and performed in accordance with the NIH Guide for the Care and Use of Laboratory Animals.
Reverse transcription of 1.0 μg of DNAsed, total RNA from 4 rats was primed with oligo(dT) and random hexamers. We utilized SuperScriptIII according to manufacturer's specifications (Invitrogen, Carlsbad, Calif.). A 1:10 dilution of cDNA was used as a template for quantitative real-time PCR, and the analysis was performed with Brilliant SYBR Green qRT-PCR Master Mix (Stratagene) on a Mx3000P Real-Time PCR System. ROX reference dye was included in all reactions. […]

Sprague-Dawley rats [3] = experiment: Porsolt test; details: IV
Sprague-Dawley rats [4] = experiment: Ketamine drug discrimination; details: FIG. 5: drug discrimination, place preference, prepulse inhibition, open field

Row | Compound | locomotor activity (line crosses in the open field) following MPFC infusion (Sprague-Dawley rats [1]) | number of genes downregulated (Wnt qRT-PCR array) ([2]; 1 and 24 hrs following administration, 10 mg/kg IV, mPFC) [gene] | Frizzled 2 (Fzd) gene expression (Wnt qPCR array) ([2]; following injection, relative to vehicle control rats) | anti-depressant effect in the Porsolt test (Sprague-Dawley rats [3]; 10 mg/kg) | rapid antidepressant-like effects in the Porsolt test (Sprague-Dawley rats [3]; rat) | ketamine-like addictive sensory motor gating, or sedative side effects (Sprague-Dawley rats [4])
1 | CNC1(c2ccccc2Cl)CCCCC1=O (stereo not drawn) [Ketamine, ketamine] | increased locomotor activity | 1 | Significant gene expression changes | produces a long-lasting anti-depressant effect | produce rapid antidepressant-like effects | –
2 | C[C@@H](O)[C@H](N)C(=O)N1CCC[C@H]1C(=O)N1CCC[C@H]1C(=O)N[C@H](C(N)=O)[C@@H](C)O [GLYX-13, L-threonyl-L-prolyl-L-prolyl-L-threonine amide] (H-TPPT-NH2) | – | – | – | – | – | does not show ketamine-like addictive sensory motor gating, or sedative side effects

Source: patent US20150253305A1, “METHODS OF IDENTIFYING COMPOUNDS FOR TREATING DEPRESSION AND OTHER RELATED DISEASES” (NORTHWESTERN UNIVERSITY, priority 2012, published 2015)
